# Data taken from patent publication US12303591B2, “Tumescent infiltration drug delivery of high subcutaneous drug concentrations with prolonged local and systemic effects and minimal local or systemic toxicity” (priority 2015, dated 2025).
# Where “and” joins values, the source holds several entries; their conditions need not be identical. Equal entries are not always repeated. Where two headings read alike, the source gives them in different places.
# Columns and labels:
# [1] = Safety of tumescent drug delivery: subcutaneous infiltration of tumescent acyclovir and gentamicin; assay type: in vivo, human
# Herpes zoster = details: without repeat dosing
# [2] = system: Staphyloccus aureus (MRSA) ATCC 33592; experiment: Minimum Inhibitory Concentration (MIC) vs MRSA; details: Staphylococcus aureus
# clinical = details: human, in vivo
# [3] = Adverse effects / tissue toxicity after subcutaneous tumescent infiltration (TAD trial)
# Description: At the time when each sample of TISF was obtained, patients were examined and questioned about signs and symptoms of subcutaneous tissue toxicity including unusual soreness, tenderness, discoloration, swelling at sites of subcutaneous tumescent infiltration. […] One week after TAD patients were questioned by telephone about any signs and symptoms of subcutaneous tissue toxicity at the sites of TAD.
# [4] = IV Lidocaine; neuropathic pain; cited from earlier work
# platelet function = experiment: Bleeding time and bleeding area before and after tumescent lidocaine exposure; assay type: in vivo, human
# Experimental: The skin of the left and right thigh of a subject is cleaned and allowed to dry. […] Simultaneous 4 mm deep puncture wounds are made to the same area of the left and right thighs with disposable lancets. The puncture sites are blotted with filter paper every 30 seconds, until bleeding stops and the bleeding time for each thigh is recorded. The bleeding times of the left and right thigh are compared to determine if administration of TLAnti increases bleeding time. Normal bleeding time measured by the Duke method is 1 to 3 minutes.
# In a preliminary experiment, bleeding time and bleeding area were measured in a patient before and after tumescent lidocaine exposure. […] In contrast, there was a 40% increase in Average Bleeding Area (BA). Bleeding Area (BA) was a more sensitive and a more specific test for platelet function compared to Bleeding Time (BT). […] In other words, TAD may reduce the risk of both post-operative surgical site infection and post-operative thromboembolism.
# platelet aggregation = details: cited from earlier work
# [5] = system: Staphyloccus aureus (MRSA) ATCC 33592; experiment: Minimum Bactericidal Concentration (MBC) vs MRSA; assay type: cell-based, Staphylococcus aureus
# Description: Determinations of MBC followed the method described in “Report on the Working Party on Antibiotic Sensitivity Testing of the British Society of Antimicrobial Chemotherapy: A Guide to Sensitivity Testing.”
# [6] = routine injection; cited from earlier work
# [7] = 28 mg/kg of tumescent lidocaine
# [8] = human, in vivo
# [9] = IVAD 500 mg; abdominal wall surgery; cited from earlier work
# [10] = Phase I pharmacokinetic clinical trial: TAD vs IVAD of cefazolin and metronidazole (TISF and serum); details: for AUC / Cmax: human, in vivo
# [11] = 8 of 10 obese subjects and 3 of 10 normal controls; cited from earlier work
# [12] = after vs before tumescent lidocaine exposure
# [13] = post-op tumescent lidocaine exposure, single tests T3, T4, Patient 1
# [14] = dilute drug after subcutaneous tumescent infiltration
# [15] = 20 ml subcutaneous TI, 6 of 6 subjects, 6 days
compound,measurement,setting,value
Nc1nc2c(ncn2COCCO)c(=O)[nH]1 [Acyclovir],clinically significant adverse effects,"[1]; in vivo, sc",without any clinically significant adverse effects
same,ecchymosis,"[1]; in vivo, sc",no ecchymosis
same,local tenderness upon palpation,"[1]; in vivo, sc",no local tenderness
same,duration of elimination of acute zoster pain,Herpes zoster,at least 12 hours
Cc1nnc(SCC2=C(C(=O)O)N3C(=O)[C@@H](NC(=O)Cn4cnnn4)[C@H]3SC2)s1 [Cefazolin],MIC,[2],125 to 250 µg/mL
same,Tmax,clinical,8 to 12 h
same,adverse local or systemic effects,"[3]; in vivo, sc",no adverse local or systemic effects
CCN(CC)CC(=O)Nc1c(C)cccc1C [Lidocaine],MIC,[2],~5000 µg/mL
same,MIC,[2]; read-out: MIC end point,5000 µg/mL
same,mean serum lidocaine concentration at complete analgesia,[4],3.79 ± 1.00 µg/mL
same,Average Bleeding Area (BA),platelet function; after tumescent lidocaine exposure (Control BA = 541),Lidocaine BA = 759
same,Average Bleeding Time (BT),platelet function; after tumescent lidocaine exposure (Control BT = 6),Lidocaine BT = 5.75
same,change in Average Bleeding Time (BT),platelet function; [12],essentially no change
same,increase in Average Bleeding Area (BA),platelet function; [12],40%
same,Bleeding Area BA,platelet function; [13],791.81 and 726.03
same,Bleeding Time BT × 2,platelet function; [13],10 and 13
same,adverse local or systemic effects,[3]; [14],no adverse local or systemic effects
same,concentrations that consistently inhibit in-vitro platelet aggregation,"platelet aggregation; aggregation induced by ADP, epinephrine and collagen",≥ 0.5 mg/mL
same,systemic concentrations with no effect on platelet aggregation,platelet aggregation; safe systemic concentrations,≤ 6 micrograms/ml
same,MRSA survival at test concentration (MBC test),"[5]; Day 1, 1,000 mg/L, MRSA Inoculum 4.7 × 10^5 CFU/ml",+
same,MRSA survival at test concentration (MBC test),"[5]; Day 2, 1,000 mg/L, MRSA Inoculum 4.4 × 10^5 CFU/ml",+
same,MRSA survival at test concentration (MBC test),"[5]; Day 2, 5,000 mg/L, MRSA Inoculum 4.4 × 10^5 CFU/ml",+
same,MRSA survival at test concentration (MBC test),"[5]; Day 2, 10,000 mg/L, MRSA Inoculum 4.4 × 10^5 CFU/ml",0
same,MBC,"[5]; Staphylococcus aureus, 48 h, read-out: MBC end point",10000 µg/mL
same,duration of routine local anesthesia,[6],~2 h
same,duration of therapeutic serum lidocaine concentrations,[7],≥ 12 h
Cc1ncc([N+](=O)[O-])n1CCO [Metronidazole],Tmax,clinical,10 to 12 h
same,mean Tmax (time of Cmax in serum),[8],11
same,concentration in subcutaneous fat,[9],600 to 1700 ng/mL
same,adverse local or systemic effects,"[3]; in vivo, sc",no adverse local or systemic effects
same,"AUC∞ in TISF after TAD, times greater than in serum after IVAD",[10]; 500 mg TAD vs 500 mg IVAD,8.1 times
same,AUC,"[10]; 500 mg, Table 15B, Abdomen, TISF, TAD, 413 mg/L, with cefazolin",1030 µg·h/mL
same,AUC,"[10]; 500 mg, Table 15B, Abdomen, serum, IVAD, with cefazolin",127 µg·h/mL
same,AUC,"[10]; 500 mg, Table 15B, Abdomen, serum, TAD, 413 mg/L, with cefazolin",81 µg·h/mL
same,Cmax,"[10]; 500 mg, Cmax in tumescent interstitial fluid, TAD solution containing 500 mg of metronidazole",370000 ng/mL
same,Cmax,"[10]; 500 mg, Cmax, Table 15B, Abdomen, TISF, TAD, 413 mg/L, with cefazolin",160000 ng/mL
same,Cmax,"[10]; 500 mg, Cmax, Table 15B, Abdomen, serum, IVAD, with cefazolin",14000 ng/mL
same,Cmax,"[10]; 500 mg, Cmax, Table 15B, Abdomen, serum, TAD, 413 mg/L, with cefazolin",4800 ng/mL
same,AUC,"[10]; 600 mg, Table 16B, Abdomen, serum, TAD, 172 mg/L, TAD dose 600 mg",81 µg·h/mL
same,Cmax,"[10]; 600 mg, Cmax, Table 16B, Abdomen, TISF, TAD, 172 mg/L, TAD dose 600 mg",160000 ng/mL
same,Cmax,"[10]; 600 mg, Cmax, Table 16B, Abdomen, serum, IVAD dose 600 mg",14000 ng/mL
same,Cmax,"[10]; 600 mg, Cmax, Table 16B, Abdomen, serum, TAD, 172 mg/L, TAD dose 600 mg",4800 ng/mL
same,AUC,"[10]; Table 16B, Abdomen, TISF, TAD + IVAD, 200 mg/L, TAD dose 400 mg, IVAD dose 200 mg",1130 µg·h/mL
same,AUC,"[10]; Table 16B, Abdomen, serum, TAD + IVAD, 200 mg/L, TAD dose 400 mg, IVAD dose 200 mg",117 µg·h/mL
same,Cmax,"[10]; Cmax, Table 16B, Abdomen, TISF, TAD + IVAD, 200 mg/L, TAD dose 400 mg, IVAD dose 200 mg",150000 ng/mL
same,Cmax,"[10]; Cmax, Table 16B, Abdomen, serum, TAD + IVAD, 200 mg/L, TAD dose 400 mg, IVAD dose 200 mg",5900 ng/mL
CO[C@@]1(NC(=O)Cc2cccs2)C(=O)N2C(C(=O)O)=C(COC(N)=O)CS[C@@H]21 [cefoxitin],"subcutaneous bioavailability (AUC) of free drug after IVAD, times less than serum bioavailability",[11],10 times
same,"subcutaneous bioavailability by IVAD, times less than by TAD","[10]; 10×16, for a significant proportion of patients",approximately 160 times
CNC[C@H](O)c1ccc(O)c(O)c1 [epinephrine],adverse local or systemic effects,[3]; [14],no adverse local or systemic effects
Gentamicin,ecchymosis,[1]; [15],no ecchymosis
same,local tenderness upon palpation,[1]; [15],no local tenderness
same,stinging upon injection,"[1]; 20 ml subcutaneous TI, acyclovir 1 gm in 1130 ml, gentamicin 80 mg in 1110 ml tumescent lidocaine solution, 6 of 6 subjects",no stinging
same,clinically significant adverse effects,[1]; injected subcutaneously in a dilute tumescent solution,without any clinically significant adverse effects
